Results from patent US9594047B2, “Potentiometric sensors and method for measuring intermolecular interactions” (Universiteit Antwerpen, priority 2013, dated 2017).

What was measured:
[1] = Potentiometric sensorgram of an oligonucleotide analyte; details: 10^−5 M injection
Description: Coating materials such as gelatin are easily doped by proteins [see De Wael, K.; De Belder, S.; Van Vlierberghe, S.; Van Steenberge, G.; Dubruel, P. Talanta 82 (2010) 1980-1985] antibodies, bioparticles (viruses, bacteria, . . . ), DNA, and aptamers. Large biomolecules can be used as analyte (prey ligand) (second molecular species). From experience with oligonucleotides [Nagels, L. J.; Everaert, J.; Bohets, H.; Del Favero, J.; Goossens, D.; Robbens, J.; Pietraszkiewicz, M.; Pietraszkiewicz, O., Comb. Chem. High Throughput Screening 10 (2007) 555-559] it is known that these multiply charged molecules give very good potentiometric responses. For example, the 22-mer 5′-[…]-3′ yields a slope (S, equations 2 and 3) value of 38 mV per decade, which is much higher than that calculated by the Nernst equation (equation 2). This is due to the fact that equation 2 was derived for point charges, while an oligonucleotide is a multiply charged rodlike molecule. It is detected three times more sensitively (on a molar basis) than a small, well-responding anionic molecule such as maleic acid. […] This means that the described method can also be used to measure DNA/DNA interactions. Potentiometry also allows working with miniaturized electrode arrays (eventually with ion-sensitive field-effect transistor (ISFET) readout), which means that high-throughput measurements can be considered.

[2] = tested on: gelatin A coating (collagen material); experiment: Potentiometric FIA sensorgram, linearization method, gelatin A-coated sensor; format: binding, porcine
Description: (§1) [formula] Starting from the “association” part of the sensorgram, one can now plot dR/dt versus R. For a pseudo-first-order kinetics, this will yield a straight line with slope equal to slope=−(koncanalyte+koff) (12) Plotting this slope versus canalyte then yields a graph from which kon and koff can be calculated.
(§2) From kon and koff, Kassoc=kon/koff is obtained, from which Kdiss (=1/Kassoc) and the Gibbs free energy of interaction can be calculated (ΔG^0=−RT ln Kass). Kdiss is most frequently used term to express intermolecular interactions. This type of analysis was done for different electrode/analyte combinations. Examples were chosen so as to include examples where the immobilized component (in the coating layer of the sensor) includes large biomolecules (DNA).
The flow injection analysis (FIA) recordings were performed using an LC-10ADvp pump (Shimadzu Liquid Chromatography) and a Rheodyne 7125 six-port external sample injector (VICI, Houston, Tex.). A 1.00 mL sample loop was used to generate square concentration pulses for sensorgram recording in FIA conditions. […] The flow rate was 1.00 mL min^−1. Poiseuille peak broadening effects were kept to a minimum using short injector-detector connections (150 mm). […]

[3] = tested on: DA-specific aptamer (58 mer); experiment: Potentiometric FIA sensorgram, gelatin B sensor with covalently linked DA-specific aptamer; format: binding; details: for Rmax response in mV: 10^−5M injection, coating Gelatin B + DA-specific aptamer; for change in sensitivity (Rmax) when aptamer is coupled to gelatin B: with versus without aptamer
Description: as §1, §2
(§3) The flow injection analysis (FIA) recordings were performed using an LC-10ADvp pump (Shimadzu Liquid Chromatography) and a Rheodyne 7125 six-port external sample injector (VICI, Houston, Tex.). A 1.00 mL sample loop was used to generate square concentration pulses for sensorgram recording in FIA conditions. […] The flow rate was 1.00 mL min^−1. Poiseuille peak broadening effects were kept to a minimum using short injector-detector connections (150 mm). To avoid such effects at the end of the square concentration pulse, the injector was switched from inject to load after 40 s (well before the sample loop volume was totally emptied).
The well-known ethyl-dimethyl-aminopropylcarbodiimide and n-hydroxy-succinimide (EDC-NHS) coupling procedure was used (with minor modifications) to bind the aminated aptamer covalently to the hydrogel, which contains carboxyl groups. After adding 20 μL of the coupling agents (15.32 mg of EDC and 2.32 mg of NHS dissolved in 100 μl of 10.0 mM MES buffer at pH 7.0) to the coated hydrogel for 2 h, 2×4 μL of the aptamer (10^−4M) was applied for 1 h. After evaporation for 2 h, at 4° C. the electrodes were kept in 10.0 mM MES running buffer, pH 7.0.
All chemicals were of analytical reagent grade. The FIA eluents were prepared daily by the dilution of a concentrated phosphoric acid solution or by dissolving HEPES, both obtained from Acros Organics (Filter Service NV, Eupen, Belgium). High-molecular-mass PVC was obtained from Janssen Chimica (Beerse, Belgium). The other membrane components were of the highest quality grade available from Fluka (Sigma-Aldrich, Bornem, Belgium). These include plasticizer TCPB, DOS, and the solvent tetrahydrofuran (THF). Type gelatin A (IEP (isoelectric point)=8.8, bloom strength 202), isolated from porcine skin by acid treatment, was obtained from Tessenderlo Chemie (Belgium). Promazine, lidocaine and tartaric acid were obtained from Sigma-Aldrich.
After checking the coupling of the aptamer to the biopolymer as described above, the electrodes were placed in a FIA potentiometric setup.
(§4) A R=10^mV/S−1 conversion was then plotted (see equation 4). […] Four electrodes were tested, each 3 injections.

Gelatin B = experiment: Potentiometric FIA response on gelatin B-coated electrode without aptamer (negative control sensor); format: binding; details: for Rmax response in mV: 10^−5M injection, coating Gelatin B
Procedure: as §4

DA-specific aptamer = details: read-out: Kdiss determined colorimetrically; Zheng (2011); cited from earlier work
[4] = Potentiometric FIA sensorgram, linearization method, rubber phase (PVC) coated sensor; format: binding; details: for koff: from plot of slope versus canalyte (on phase kinetics); for kon: from plot of slope versus canalyte, eluent 5.0 mM H3PO4 pH 2.4
Description: The model is based on the assumption that the rate determining phenomenon is the adsorption of analyte A (second molecular species) to the surface receptor sites Rsurface: A+Rsurface⇄ARsurface (5) Receptor sites are occupied by the analyte are designated as Roccupied. The rate of adsorption can be expressed as νon: […]
Differential equation 6 can be solved to yield equations 8 and 10. In these equations, Roccupied is replaced by R, the concentration-related response (10^mV/S−1), as both are linearly related (see above). Rmax is the value of R which is obtained at the plateau of the sensorgram: R(t)=Rmax(1−e^−k^obsd^t) (8) where kobsd=[…] (9) Equation 7 yields the well-known first-order exponential desorption formula: R(t)=Rmaxe^−k^off^t (10)
as §1, §2, §3
The eluent was 5.0 mM H3PO4 (pH 2.4) for the poly(vinyl chloride) (PVC)-based electrodes and 0.5 mM 4-(2-hydroxyethyl)-1-piperazine-ethanesulfonic acid (HEPES; pH 6.0) for the hydrogel electrodes (see the section “Potentiometric Electrode”). The column outlet was directed perpendicularly toward the sensitive membrane of the coated wire electrode in a “wall-jet” flow cell [see FIG. 1 and Bazylak, G.; Nagels, L. J. J. Pharm. Biomed. Anal. 32 (2003) 887-903]. The distance from the LC tubing outlet to the electrode was 0.100 mm unless otherwise stated.
The membrane potential was measured against an Orion 800500 Ross reference electrode (Ag/AgCl) using a high impedance (10^13Ω) home-made amplifier. The detection signals were recorded on a data station composed of a PC equipped with a 6013 NI DA converter and LabVIEW 7 (National Instruments, Austin, Tex.) based software. The overall RC time constant of the high-impedance amplifier plus data station was set to 0.200 s.
Electrodes with a composite substrate have the important property that the membrane coating and the composite are tightly mixed at the interface, and sensors constructed in this way show very good impedance characteristics (see Nagels, L; Bohets, H.; Jimidar, M. U.S. Pat. No. 7,857,962 B2). These characteristics were verified using impedance spectroscopy. The measurements were performed with an Autolab Metrohm PGSTAT 128N FRA instrument (frequency 1-100 kHz, amplitude 10 mV). A semicircle in the Nyquist plot was obtained if the electrode had good impedance characteristics. Discussions on such characteristics of potentiometric sensors are well described in Mattinen, U.; Rabiej, S.; Lewenstam, A.; Bobacka, J. Electrochim. Acta 56 (2011) 10683-10687; and Bobacka, J.; Ivaska, A.; Lewenstam, A. Chem. Rev. 108 (2008) 329-351. […]

[5] = cited from earlier work

Compound | Rmax response in mV [3] | change in sensitivity (Rmax) when aptamer is coupled to gelatin B [3] | sensitivity of gelatin B based sensors (Gelatin B) | Rmax response in mV (Gelatin B) | Kassoc=kon/koff [4] | koff [4] | kon [4] | also measured
5′-AAAATATCATCTTTGGTGTTTC-3′ (chemistry not given here) [22-mer oligonucleotide used as analyte] |  |  |  |  |  |  |  | koff ([1]; off phase): 0.032 s⁻¹; kobsd ([1]; on phase): 0.055 s⁻¹
O=C(O)C(O)C(O)C(=O)O (stereo not drawn) [tartaric acid] |  |  |  |  |  |  |  | koff [2]: 0.0472 s⁻¹; kon ([2]; from plot of slope versus canalyte, 0.5 mM HEPES pH 6.0): 66700 M⁻¹ s⁻¹
CC(NCCc1ccc(O)cc1)C(O)c1ccc(O)cc1 (stereo not drawn) [Ritodrine, ritodrine] | 1.57 mV | no improvement in sensitivity | quite insensitive | 1.83 mV |  |  |  | 
NCCc1ccc(O)c(O)c1 [Dopamine, dopamine] | 92.86 mV | very clear increase in Rmax |  | 9.46 mV |  |  |  | Kd (DA-specific aptamer): 0.7 µM; Kass [3]: 3.04e+07 M⁻¹; koff [3]: 0.0007 s⁻¹; kon [3]: 21200 M⁻¹ s⁻¹; signal (Rmax) with aptamer-containing electrodes versus electrodes without aptamer ([3]; four electrodes, each 3 injections): From five to ten times higher signals; Kd ([3]; mean of four electrodes, read-out: mean value of Kdiss): 1.31 µM
CCN(CC)CC(=O)Nc1c(C)cccc1C [Lidocaine, lidocaine] | 1.57 mV | no improvement in sensitivity | quite insensitive | 2.88 mV | 275000 M⁻¹ | 0.0717 s⁻¹ | 19700 M⁻¹ s⁻¹ | average value of koff ([4]; off phase, all curves at different concentrations): 0.0748 s⁻¹
CN(C)CCCN1c2ccccc2Sc2ccccc21 [Promazine] | 2.44 mV | no improvement in sensitivity | quite insensitive | 3.66 mV | 2.74e+06 M⁻¹ | 0.0365 s⁻¹ | 100000 M⁻¹ s⁻¹ | log P [5]: 4.36
